Reference: patent US8143031B2, “Production of N-acylated sulphur-containing amino acids with microorganisms having enhanced N-acyltransferase enzymatic activity” (Metabolic Explorer, priority 2008, dated 2012)

Experiments:
YncA = biological target: T1, YncA (Escherichia coli, UniProt P76112); experiment: DTNB-based substrate and acyl-donor specificity test of YncA; type: biochemical, E. coli; conditions: for % Activity (activity of YncA with respect to the co-substrate Acetyl-coA): Acetyl-coA = 100; for % Activity (activity with respect to the substrate methionine): methionine = 100; for Activity as substrate of YncA (in words): DTNB-based assay
T1 construct: The purified protein was identified as YncA, a GCN5 related acyl transferase; made in house; host or cells: Untagged endogenous activity purified chromatographically from broken cells; E. coli is inferred
Experimental: (§1) Methionine L-amino-acid-N-acyl transferase activity was followed in microtiter plates by monitoring the apparition of HS-CoA with DTNB. The reaction solution, to which the sample was added, contained 200 mM Tris-HCl, pH 9.0, […], 3 mM Acetyl-coA and 20 mM methionine. Formation of the DTNB-CoA complex was monitored at 408 nm using a μQuant microtiter plate reader (BioTek Instruments, Inc., USA).
The substrate specificity was tested using the DTNB-based assay (see above).

[1] = biological target: Pseudomonas PA4866 protein (Pseudomonas aeruginosa, UniProt Q9HUU7); conditions: cited from earlier work
[2] = compared with the L-isomer; cited from earlier work
[3] = compared with pure methionine; cited from earlier work
[4] = MNAT activity test in vitro of purification fractions (DTNB, acetyl-coA, methionine); type: biochemical, E. coli; conditions: purification steps
Experimental: as §1
˜3 g of dry weight cells were rinsed 3 times with extraction buffer (EB) (50 mM phosphate, pH 7.0, 50 μM PLP, 500 μM DTT) and suspended in 70 mL EB. Cells were broken by sonication using a Rosett cell with a Bandelin Sonoplus ultrasonic homogenizer (Bandelin Electronic, Germany) equipped with a UW2070 probe and a SH70G tip (6 burst, 30 s, 100% efficiency, 75 W). The crude extract was centrifuged (30 min, 12.000 g, 4° C.) and solid ammonium sulfate was added to the supernatant to a final concentration of 2.3 M, and incubated on ice for 30 min. The solution was centrifuged (15 min, 15.000 g, 4° C.) and the pellet suspended in 40 mL phosphate buffer (50 mM phosphate, pH 7.0). Solid ammonium sulfate was added to a final concentration of 1.5 M, and the solution was incubated on ice for 30 min and then centrifuged (15 min, 15.000 g, 4 C). […]

[5] = methionine as substrate, various acyl-donors
[6] = Acetyl-coA as acyl-donor, various substrates

Sequence of Pseudomonas PA4866 protein (Q9HUU7 whole entry): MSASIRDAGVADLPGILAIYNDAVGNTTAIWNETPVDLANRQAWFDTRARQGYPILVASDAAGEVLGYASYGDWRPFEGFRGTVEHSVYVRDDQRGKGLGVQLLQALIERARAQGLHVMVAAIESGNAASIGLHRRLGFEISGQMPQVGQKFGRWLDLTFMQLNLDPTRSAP

Molecule | % Activity (activity with respect to the substrate methionine) (YncA; Acetyl-coA as acyl-donor) [%] | Specific Activity (YncA; [6]) [mUI/mg protein] | Activity as substrate of YncA (in words) (YncA) | further results
CC(=O)SCCNC(=O)CCNC(=O)[C@H](O)C(C)(C)COP(=O)(O)OP(=O)(O)OC[C@H]1O[C@@H](n2cnc3c(N)ncnc32)[C@H](O)[C@@H]1OP(=O)(O)O [Acetyl-coA] | – | – | – | Activity as acyl-donor of YncA (in words) (YncA; methionine as substrate): worked properly as an acyl donor; % Activity (activity of YncA with respect to the co-substrate Acetyl-coA) (YncA; methionine as substrate): 100%; Specific Activity (YncA; [5]): 745 mUI/mg protein
NC(=O)C[C@H](N)C(=O)O [Asparagine] | 2.4 | 18 | Weak activities | –
N[C@@H](CC(=O)O)C(=O)O [Aspartate] | 1 | – | – | –
CCCC(=O)SCCNC(=O)CCNC(=O)[C@H](O)C(C)(C)COP(=O)(O)OP(=O)(O)OC[C@H]1O[C@@H](n2cnc3c(N)ncnc32)[C@H](O)[C@@H]1OP(=O)(O)O [Butyryl-coA] | – | – | – | Activity as acyl-donor of YncA (in words) (YncA; methionine as substrate): weak activities; % Activity (activity of YncA with respect to the co-substrate Acetyl-coA) (YncA; methionine as substrate): 17%; Specific Activity (YncA; [5]): 129 mUI/mg protein
N[C@@H](CCC(=O)O)C(=O)O [Glutamate] | 0.6 | 4 | Weak activities | –
NC(=O)CC[C@H](N)C(=O)O [Glutamine] | 1.4 | 10 | Weak activities | –
NCCCC[C@H](N)C(=O)O [Lysine] | 1.6 | 12 | Weak activities | –
CS(=O)(=O)CC[C@H](N)C(=O)O [Methionine sulfone] | 178.8 | 1332 | Strong activities | –
C[S+]([O-])CC[C@H](N)C(=O)O (stereo partly drawn) [Methionine sulfoxide] | 147.6 | 1100 | Strong activities | –
CS(=N)(=O)CC[C@H](N)C(=O)O (stereo partly drawn) [Methionine sulfoximine] | 166.9 | 1243 | Strong activities | –
CSCC[C@H](N)C(=O)O [Methionine] | 100 | 745 | Strong activities | Acetylation by Pseudomonas PA4866 protein [1]: did not acetylate
CSCC[C@@H](NC(C)=O)C(=O)O [N-acetyl-D-methionine] | – | – | – | Incorporation by animals [2]: not incorporated as well as its L-isomer
CSCC[C@H](NC(C)=O)C(=O)O [NAM, N-acetyl-L-methionine] | – | – | – | Methionine-sparing value [3]: same methionine-sparing value as pure methionine
CCC(=O)SCCNC(=O)CCNC(=O)[C@H](O)C(C)(C)COP(=O)(O)OP(=O)(O)OC[C@H]1O[C@@H](n2cnc3c(N)ncnc32)[C@H](O)[C@@H]1OP(=O)(O)O [Propionyl-coA] | – | – | – | Activity as acyl-donor of YncA (in words) (YncA; methionine as substrate): preferred acyl-donor; % Activity (activity of YncA with respect to the co-substrate Acetyl-coA) (YncA; methionine as substrate): 140%; Specific Activity (YncA; [5]): 1039 mUI/mg protein
Purified Protein: Purified methionine N-acyl transferase from E. coli, identified as YncA, a GCN5 related acyl transferase, SEQ ID NO: 1 (protein, listed as Escherichia coli) MSIRFARKADCAAIAEIYNHAVLYTAAIWNDQTVDADNRIAWFEARTLAGYPVLVSEENGVVTGYASFGDWRSFDGFRHTVEHSVYVHPDHQGKGLGRKLLSRLIDEARDCGKHVMVAGIESQNQASLHLHQSLGFVVTAQMPQVGTKFGRWLDLTFMQLQLDERTEPDAIG | – | – | – | Specific Activity ([4]; methionine N-acyl transferase activity): 19689 mUI/mg prot; Activity ([4]; total methionine N-acyl transferase activity): 0.126 UI
